# Read-outs that look alike come from different tables or passages of the source.
# How the values were obtained:
# [1] = test system: 1205 Lu melanoma cells; assay: MTS cell viability assay, 1205 Lu melanoma cells; format: cell-based, human; settings: 72 hours treatment, read-out: Melanoma cell killing efficacy (IC50 values) 1205 Lu (Melanoma cells)
# Method: (§1) Dr. Craig Myers, Penn State College of Medicine, Hershey, PA provided normal human fibroblast cell line FF2441. Mutant V600E-BRAF human melanoma cell line 1205 Lu was provided by Dr. Herlyn; Wistar Institute, Philadelphia, PA and UACC 903 was provided by Dr. Mark Nelson; University of Arizona, Tucson, AZ. Cell lines were maintained in a 37°C humidified 5% CO2 atmosphere incubator and periodically monitored for phenotypic, genotypic characteristics, and tumorigenic potential to validate and confirm cell line identity.
# (§2) In brief, 5 × 10^3 cells per well in 100 μL of media were seeded and grown in a 96-well plate for 48 to 72 hours and treated with either DMSO vehicle control or 0.62 to 100 μmol/L of compounds for 72 hours. IC50 values for each compound in μmol/L for respective cell lines were measured from three independent experiments using GraphPad Prism version 4.01 (GraphPad Software, La Jolla, CA). In addition, recovery and viability assessment was also measured with these compounds co-treated simultaneously with 10 nmol/L of bafilomycin A1 (BafA1) or 1 mMol/L β-cyclodextrin and the viability was measured using the MTS assay after 24 hours.
# [2] = test system: normal human fibroblast cell line FF2441; assay: MTS cell viability assay, normal fibroblasts; format: cell-based; settings: 72 hours treatment, read-out: Melanoma cell killing efficacy (IC50 values) FF2441 (Normal Cells)
# Method: as §1, §2
# [3] = test system: UACC 903 melanoma cells; assay: MTS cell viability assay, UACC 903 melanoma cells; format: cell-based, human; settings: 72 hours treatment, read-out: Melanoma cell killing efficacy (IC50 values) UACC 903 (Melanoma cells)
# Method: as §1, §2
# [4] = test system: UACC 903 melanoma cells; assay: Tumorigenicity assessment, xenografted melanoma tumors; format: in vivo; settings: 80 mg/kg oral daily; UACC 903 xenograft, athymic nu/nu mice
# Method: (§3) 1 × 10^6 UACC 903 cells in 0.2 mL of DMEM supplemented with 10% FBS were subcutaneously injected above both left and right rib cages of 4–6 week old female athymic nu/nu mice. Six to eight days later, mice were randomly sorted into vehicle control 10% PEG (Poly ethylene glycol) and experimental compound 4a or leelamine groups, followed by daily oral administration of 80 mg/kg body weight. Volume of developing tumors in mm^3 was measured on alternate days using calipers along with assessment of body weights.
# [5] = test system: UACC 903 melanoma cell line; assay: Western blot of signaling pathways (PI3K/AKT, STAT3, MAPK; pERK1/2); format: cell-based, human; settings: active 3-5 μmol/L, inactive 30-50 μmol/L, 24 hours
# Description: (§4) Cell lysates were harvested and processed as described in refs [14, 29, 31, 34]. […] Protein lysates were collected for Western blotting analysis. Blots were probed with antibodies according to each supplier's recommendations: antibodies to IGF-1R, total AKT, phosphor AKT (Ser473), total PRAS40, phospho-PRAS40 (Thr246), total ERK1/2, phospho-ERK1/2 (Thr202/Tyr 204), total CDK2, phospho-CDK2 (Thr160), p62, LC3B, total STAT, phospho-STAT3 (Tyr705), caspase 3 and cleaved PARP from Cell Signaling Technology (Danvers, MA); cyclin D1, α-enolase and secondary antibodies conjugated with horseradish peroxidase from Santa Cruz Biotechnology (Santa Cruz, CA). Immunoblots were developed using the enhanced chemiluminescence (ECL) detection system (Thermo Fisher Scientific, Rockford, IL).
# [6] = Body weight and sub-chronic toxicity assessment (blood biomarkers) in tumor-bearing mice; format: in vivo; settings: 80 mg/kg oral daily; for body weights of mice: 24 days of treatment
# Method: as §3
# At the end of tumorigenicity assessment, blood was collected from each euthanized animal in a serum separator tube with lithium heparin (BD Microtainer), following cardiac puncture and analyzed for levels of ALT (Alanine aminotransferase), AST (Aspartate aminotransferase), ALKP (Alkaline phosphatase), ALB (Albumin), GLB (Globulin), TPR (Total Protein), TBIL (Total bilirubin), BUN (Blood urea nitrogen), GLU (Glucose), CK (Creatine kinase), CAL (Calcium).
# [7] = test system: melanoma cells; assay: Autophagic flux: Western blot of p62 and LC3B; format: cell-based, human; settings: Western blotting, 24 hours
# Description: as §4
# [8] = test system: UACC 903 cells; assay: Endocytosis: Alexa Fluor 488 transferrin uptake; format: cell-based, human; settings: UACC 903, 2 hours treatment
# Method: The endocytotic capacity of the cells was measured as described in Kuzu et al. 2014 [14]. Briefly, UACC 903 cells were seeded into chamber slides and treated with the particular agents for 2 hours. Next, Alexa Flor 488 tagged transferrin protein was added at a final concentration of 5 μg/mL and incubated for 30 minutes. Cells were then fixed on the slide with 4% paraformaldehyde and analyzed by fluorescence microscopy as described previously. Measurement of compounds effects on lysosomotropism was assessed through the appearance of cellular vacuolization of UACC 903 cells growing at 70 to 80% confluency on 100 mm culture dishes compared to controls. For some experimental conditions cells were co-treated with 10 nmol/L of BafA1 for 3 hours. Light microscopic images were used to assess cellular vacuolization.
# [9] = Dose escalation for oral administration of leelamine; format: in vivo; settings: 80 mg/kg body weight (QOD) over 14 days, Swiss Webster mice
# Method: To determine the effective oral dosage of leelamine, a dose escalation study was conducted in 4–6 week old Swiss Webster mice. […] Animals were weighed daily to ascertain potential toxic effects leading to changes in body weight. At the end of treatment, blood was collected from each sacrificed animal in a serum separator tube with lithium heparin (BD Microtainer) following cardiac puncture and levels of serum biomarkers of major organ toxicity were measured. In addition, vital organs including liver, spleen, kidney, intestine, lung and heart from control and experimental animals were collected on day 14, formalin fixed, paraffin-embedded, H&E stained and analyzed microscopically for changes in cellular morphology or tissue architecture.
# [10] = Pharmacokinetics of leelamine in the serum of mice; format: in vivo; settings: 80 mg/kg oral, Swiss Webster mice
# Method: Leelamine was extracted from serum as reported previously. Swiss Webster mice were treated orally with 80 mg/kg body weight of leelamine, animals were euthanized and blood drawn by cardiac puncture at various time periods over 36 hours. Samples were kept at room temperature for 30 minutes followed by serum separation by centrifugation for 5 minutes at 5,000 rpm. Next, 20 μL of the collected serum was added to 80 μL of acetonitrile along with 5 μL of propranolol (RS)-1-(1-methylethylamino)-3-(1-naphthyloxy)propan-2-ol), which served as an internal standard (transition of m/z 259.9 to 116.0). Solution was vortexed for 30 seconds and then centrifuged at 10,000 rpm for 10 minutes. Supernatant was transferred to the auto sampler vials and subject to liquid chromatography-mass spectrometry using LC-MS/MS 2010 EV system (Shimadzu, Tokyo, Japan).
Compound,"IC50 ([1]; Homo sapiens, 1205Lu, 72 h) [µM]",IC50 [2] [µM],"IC50 ([3]; Homo sapiens, UACC-903, 72 h) [µM]","effect on PI3K/AKT, STAT3 and MAPK signaling pathways [5]",further results
"CC(C)C1=CC2=CCC3[C@](C)(CCC[C@@]3(C)C(N)=O)C2CC1 (stereo partly drawn) [3a, (1R, 4aR)-7-isopropyl-1,4a-dimethyl-1,2,3,4,4a,4b,5,6,10,10a-decahydrophenanthrene-1-carboxamide]",81 ± 2.1,> 100,70.1 ± 1.8,–,–
"CNC(=O)[C@]1(C)CCC[C@]2(C)C3CCC(C(C)C)=CC3=CCC21 (stereo partly drawn) [3b, (1R, 4aR)-N, 1,4a-trimethyl-7-(propan-2-yl)-1,2,3,4,4a, 4b, 5,6, 10, 10a-decahydrophenanthrene-1-carboxamide]",> 100,> 100,> 100,–,–
"CCN(CC)C(=O)[C@]1(C)CCC[C@]2(C)C3CCC(C(C)C)=CC3=CCC21 (stereo partly drawn) [3c, (1R, 4aR)-N, N-diethyl-1,4a-dimethyl-7-(propan-2-yl)-1,2,3,4,4a, 4b, 5,6, 10, 10a-decahydrophenanthrene-1-carboxamide]",> 100,> 100,> 100,–,–
"CC(C)C1=CC2=CCC3[C@](C)(CN)CCC[C@]3(C)C2CC1 (stereo partly drawn) [4a, [(1R, 4aR)-1,4a-dimethyl-7-(propan-2-yl)-1,2,3,4,4a, 4b, 5,6,10,10a-decahydrophenanthren-1-yl] methanamine]",2.9,8.33 ± 0.4,2.1,inhibited,"reduction of tumor volume compared with vehicle control [4]: 51%; body weights of mice [6]: No significant differences; blood parameters (ALT, AST, ALKP, ALB, GLB, TPR, TBIL, BUN, GLU, CK and CAL) indicative of organ-related sub-chronic toxicity ([6]; end of study): fell in the normal range; autophagic flux (p62 and LC3B proteins) [7]: dose dependently induced accumulation of p62 and LC3B proteins"
"CNC[C@]1(C)CCC[C@]2(C)C3CCC(C(C)C)=CC3=CCC12 (stereo partly drawn) [4b, {[(1R, 4aR)-1,4a-dimethyl-7-(propan-2-yl)-1,2,3,4,4a, 4b, 5,6,10,10a-decahydrophenanthren-1-yl]methyl}(methyl) amine]",2.3,9.33 ± 1.2,2.3,–,–
"CCN(CC)C[C@]1(C)CCC[C@]2(C)C3CCC(C(C)C)=CC3=CCC12 (stereo partly drawn) [4c, N-ethyl-N-(((1R, 4aR)-7-isopropyl-1,4a-dimethyl-1,2,3,4,4a, 4b,5,6,10,10a-decahydrophenanthren-1-yl)methyl) ethanamine]",24.3 ± 2.5,> 100,24.4 ± 1.4,–,–
"CC(C)c1ccc2c(c1)CCC1[C@](C)(CNC(=O)C(F)(F)F)CCC[C@]21C (stereo partly drawn) [5a, N-{[(1R, 4aS)-1,4a-dimethyl-7-(propan-2-yl)-1,2,3,4,4a, 9, 10, 10a-octahydrophenanthren-1-yl]methyl}-2,2,2-trifluoroacetamide]",2,5.17 ± 0.1,1.2,inhibited,autophagic flux (p62 and LC3B proteins) [7]: dose dependently induced accumulation of p62 and LC3B proteins
"CC(C)c1ccc2c(c1)CCC1[C@](C)(CNC(=O)C(Br)(Br)Br)CCC[C@]21C (stereo partly drawn) [5b, N-{[(1R, 4aS)-1,4a-dimethyl-7-(propan-2-yl)-1,2,3,4,4a, 9, 10, 10a-octahydrophenanthren-1-yl]methyl}-2,2,2-tribromoacetamide]",1.8,4.1 ± 0.2,1,–,–
"CC(=O)NC[C@]1(C)CCC[C@]2(C)c3ccc(C(C)C)cc3CCC12 (stereo partly drawn) [5c, N-{[(1R, 4aS)-1,4a-dimethyl-7-(propan-2-yl)-1,2,3,4,4a, 9, 10, 10a-octahydrophenanthren-1-yl]methyl} acetamide]",> 100,> 100,89.4 ± 3.3,did not affect these pathways,–
"CC(C)c1ccc2c(c1)CCC1[C@](C)(CNC(=O)c3ccccc3)CCC[C@]21C (stereo partly drawn) [5d, N-(((1R, 4aS)-7-isopropyl-1,4a-dimethyl-1,2,3,4,4a, 9, 10, 10a-octahydrophenanthren-1-yl)methyl) benzamide]",> 100,> 100,> 100,–,–
"CC(C)c1ccc2c(c1)CCC1[C@](C)(CNCc3ccccc3)CCC[C@]21C (stereo partly drawn) [5e, N-benzyl-1-((1R, 4aS)-7-isopropyl-1,4a-dimethyl-1,2,3,4,4a, 9, 10, 10a-octahydrophenanthren-1-yl) methanamine]",7,3.13 ± 0.4,6,–,IC50 [1]: 7.05 ± 0.7 µM
"CC(C)c1ccc2c(c1)CCC1[C@](C)(CNC(c3ccccc3)(c3ccccc3)c3ccccc3)CCC[C@]21C (stereo partly drawn) [5f, {[(1R, 4aS)-1,4a-dimetyl-7-(propan-2-yl)-1,2,3,4,4a, 9, 10, 10a-octahydrophenanthren-1-yl]methyl} (triphenylmethyl) amine]",> 100,> 100,> 100,–,–
"CC(C)C1=CC2=CC[C@@H]3[C@](C)(CCC[C@@]3(C)C(=O)O)[C@H]2CC1 [Abietic acid, reference compound]",> 100,> 100,> 100,did not affect these pathways,cellular endocytosis (Alexa Fluor conjugated transferrin uptake) [8]: did not occur
CC(C)c1ccc2c(c1)CCC1C(C)(CN)CCCC21C (stereo not shown) [Leelamine],1.93 ± 0.2,8.91 ± 0.6,1.35 ± 0.1,inhibited,"weight loss on repeated oral dosing [9]: did not cause any weight loss; body weights of mice [6]: No significant differences; autophagic flux (p62 and LC3B proteins) [7]: dose dependently induced accumulation of p62 and LC3B proteins; time present in the serum ([10]; followed over 36 hours): ≤ 24 h; Tmax ([10]; mouse, serum, LC-MS/MS, read-out: time of maximum concentration in serum): 6 h"
"[(1R, 4aR)-1,4a-dimethyl-7-(propan-2-yl)-1, 2, 3, 4, 4a, 4b, 5, 6, 7,10a-decahydrophenanthren-1-yl] methanol [2b]",–,–,–,–,IC50 [1]: 60.3 ± 1.6 µM; IC50 [3]: 52.6 ± 1.4 µM
